The text below walks through data of patent publication US20250144562A1, “ELECTROCHEMICAL CO2 CAPTURE WITH AIR STABLE REDOX SPECIES” (President and Fellows of Harvard College, priority 2022, published 2025).

Data set [1] can be described thus: Reduction potentials stated for choice of chemical reductant. The settings on record: pH=7.
Data set [2] is described as follows: Cyclic voltammetry of the water-soluble redox molecules. The note with it: for redox peak separation: 0.1 M in 1 M TBABr.
Source text: Cyclic voltammetry was used to examine the electrochemical behaviors of the water-soluble redox molecules in the presence/absence of CO2.
A short description of data set [3]: Stability in air of reduced BTMAPAQ isomers (with and without captured CO2) tracked by 1H NMR.
Data set [4] can be described thus: Stability in air of 2,7-BTMAPFL-OH stirred in air for 12 hours, 1H NMR. It is filed as physicochemical. The note with it: vigorously stirred in air 12 hours. How it is done: We vigorously stirred the solution in air for 12 hours, then checked its ^1H NMR spectra before and after being stirred in air.
The 2,7-BTMAPFL molecule undergoes PCET process and forms 2,7-BTMAPFL-OH after the electrochemical reduction; meanwhile, the electrolyte pH swings from near neutral (˜7) to ˜14. Therefore, we also investigated the air stability of 2,7-BTMAPFL-OH at pH 14 by vigorously stirring the pH 14 solution in air for 12 hours.

The conditions of data set [5]: pH >6; cited from earlier work.
The mark [6] stands for this setting: with captured CO2, D2O, 1 M KCl.
The mark [7] stands for this setting: with captured CO2, D2O, 1 M KCl, air exposure.
Setting [8] is: with captured CO2, D2O, 1 M KCl, air exposure, day-4.
Where [9] appears, read: with captured CO2, D2O, 1 M KCl, air exposure, day-6.
Where [10] appears, read: without captured CO2, D2O, 1 M KCl.
Where [11] appears, read: without captured CO2, D2O, 1 M KCl, air exposure.
Setting [12] is: without captured CO2, D2O, 1 M KCl, air exposure, day-3.

“bis-(trimethylammonio)propyl anthraquinone [BTMAPAQ]” gave a reduction potential in data set [1] of −0.41 V vs. SHE.

For the compound `C[N+](C)(C)CCCOc1cccc2c1C(=O)c1c(OCCC[N+](C)(C)C)cccc1C2=O` [1,8-BTMAPAQ], the redox peak separation came out at 100 mV in data set [2] (absence of CO2, scan rate 100 mV/s) and 200 mV in data set [2] (in the presence of CO2, scan rate 100 mV/s). Also, in data set [3] (with captured CO2, 1 M TBABr), the “time the reduced species with captured CO2 can withstand the presence of air” value came out at 5 days. In data set [3] (with captured CO2, D2O, 1 M TBABr), the “oxidation by air of the reduced species” value is given as “extremely slow”. Moreover, the “day on which peaks of oxidized state appear” value in data set [3] (with captured CO2, D2O, 1 M TBABr, air exposure day 1 to day 9) was 9 days.

In the case of `C[N+](C)(C)CCCOc1ccc2c(c1)C(O)c1cc(OCCC[N+](C)(C)C)ccc1-2` [2,7-BTMAPFL-OH], the “air stability (1H NMR spectra unchanged)” value in data set [4] (D2O, 1 M KCl, pH 7) is given as “excellent air stability over 12 hours”. In addition, in data set [4] (pH 14), the “air stability (1H NMR spectra almost unchanged)” value was “excellent air stability over 12 hours”.

Take `C[N+](C)(C)CCCOc1cccc2c1C(=O)c1cccc(OCCC[N+](C)(C)C)c1C2=O` [1,5-BTMAPAQ]: the “oxidation by air of the reduced species” value in data set [3] (setting [6]) and in data set [3] (setting [10]) was “very slow” in each case. Besides, the “day on which peaks of oxidized state start to appear” value in data set [3] (setting [7]) turned out to be 4 days; in data set [3] (setting [11]), 2 days. Moreover, the entries for the “reduced form with captured CO2 converted to the oxidized form” value in data set [3] (setting [8]) and in data set [3] (setting [9]) were 15.0% and 22.3%, respectively. In data set [3] (setting [11]), the “air stability (1H NMR spectra unchanged)” value is “good air stability over the first day”. For the same compound, the “reduced form converted to the oxidized form” value in data set [3] (setting [12]) worked out at 37.0%; in data set [3] (without captured CO2, D2O, 1 M KCl, air exposure, day-5), 47.4%; in data set [3] (without captured CO2, D2O, 1 M KCl, loosely capped, air exposure, day-2), 23.6%.

For the compound `O=S([O-])S(=O)[O-].[Na+].[Na+]` [Na2S2O4, sodium dithionite, reference compound], the reduction potential in data set [1] is listed as −0.66 V vs. SHE.

For the compound `C[N+](C)(C)CCCOc1ccc2c(c1)C(=O)c1cc(OCCC[N+](C)(C)C)ccc1-2` [2,7-BTMAPFL], the “cyclic voltammetry peaks observed” value in data set [2] (0.1 M in 1 M KCl at pH 7, scan rate 100 mV/s) is “a reduction peak but no oxidation peak”. The “potential of the pair of redox peaks” value in data set [2] (0.1 M in 1 M KOH at pH 14, scan rate 100 mV/s) was −0.67 V vs. Ag/AgCl. For the same compound, the figures for the electrochemical reversibility entry in data set [2] (pH 7) and in data set [2] (pH 14) were “poor reversibility” and “good reversibility”, respectively.

`C[N+](C)(C)CCCOc1ccc(OCCC[N+](C)(C)C)c2c1C(=O)c1ccccc1C2=O` [1,4-BTMAPAQ]: the “oxidation by air of the reduced species” value in data set [3] (setting [6]) is “relatively slow”; in data set [3] (setting [10]), “very slow”. Also, the “day on which peaks of oxidized state start to appear” value in data set [3] (setting [7]) was 2 days; in data set [3] (setting [11]), 3 days. Also, the “reduced form with captured CO2 converted to the oxidized form” value in data set [3] (with captured CO2, D2O, 1 M KCl, air exposure, day-3) amounted to 51.5%; in data set [3] (setting [8]) it was 73.0%; in data set [3] (setting [9]), 98.0%. Besides, the “reduced form converted to the oxidized form” value in data set [3] (setting [12]) is 11.3%; in data set [3] (without captured CO2, D2O, 1 M KCl, air exposure, day-4) it was 27.6%; in data set [3] (without captured CO2, D2O, 1 M KCl, air exposure, day-6) it was 50%.

Take `O=NO` [NO2, nitrite]: the air-stability result in data set [5] is reported as “superior air-stability”.
